The values below come from publication PMC8707700, “Ru(III) Complexes with Lonidamine-Modified Ligands” (International Journal of Molecular Sciences, 2021).

Data set [1] has as its target T1, TrxR1 in rat liver extracts (Rattus norvegicus, UniProt O89049).
T1 construct: measured in the extracts from the liver of male white outbred rats; from tissue; host or cells: liver of male white outbred rats (homogenate supernatant)
T1 sequence (O89049 1-499): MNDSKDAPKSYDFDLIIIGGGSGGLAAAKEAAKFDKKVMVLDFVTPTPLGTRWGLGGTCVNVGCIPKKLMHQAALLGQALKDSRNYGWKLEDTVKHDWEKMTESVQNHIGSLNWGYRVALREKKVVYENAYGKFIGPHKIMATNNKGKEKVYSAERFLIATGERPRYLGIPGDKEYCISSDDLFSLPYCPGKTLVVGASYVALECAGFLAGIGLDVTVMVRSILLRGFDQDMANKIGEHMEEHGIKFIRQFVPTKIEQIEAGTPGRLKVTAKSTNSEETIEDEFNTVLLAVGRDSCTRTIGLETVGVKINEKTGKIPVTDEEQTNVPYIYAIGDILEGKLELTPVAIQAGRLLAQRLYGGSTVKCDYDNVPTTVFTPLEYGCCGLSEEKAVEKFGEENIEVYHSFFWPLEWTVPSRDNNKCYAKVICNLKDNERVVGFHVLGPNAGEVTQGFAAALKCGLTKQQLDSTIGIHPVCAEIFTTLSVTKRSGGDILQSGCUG
As to the kind of experiment: Inhibition of TrxR1 in rat liver extracts. The data set is classed as biochemical. The note with it: for mechanism of inhibition: efficacy independent of DTNB concentration; for Ki: estimated according to the Cheng–Prusoff equation, read-out: Ki (inhibition constant); for IC50: rat liver extracts, read-out: TrxR1 IC50, µM (95% C.I.). On the procedure: The TrxR1 enzyme was measured in the extracts from the liver of male white outbred rats homogenised in 50 mM of PBS containing 1 mM of EDTA and centrifuged for 15 min at 10,000 rpm at 4 °C. The supernatant was adjusted to 7.5 µg/mL of protein as determined with pyrogallol red. Then, 40 μL of the enzyme solution was mixed with 10 μL of the test compounds in a 96-well clear flat bottom plate. After 10 min at 25 °C, 30 μL of PBS containing 0.7 mg/mL of BSA and 0.8 mM of NADPH was added. After 15 min at 25 °C, 20 µL of DTNB solution was added to the desired final concentrations. Kinetic studies were carried out by assaying TrxR1 at various concentrations of DTNB. The optical density of the samples was measured with an Infinite M200 Pro reader (Tecan, Grödig, Austria) at 412 nm every 30 s for 20 min. The activity of TrxR1 was calculated as a reaction slope relative to the control wells using Prism 8.0 (GraphPad, Inc., San Diego, CA, USA).

For data set [2], the target named is T2, isolated rat TrxR1 (rat liver TrxR) (Rattus norvegicus, UniProt O89049).
T2 construct: Commercially available rat liver TrxR; purchased Sigma Aldrich; host or cells: rat liver
T2 sequence (O89049 1-499): T1 sequence (O89049 1-499)
As to the kind of experiment: Inhibition of purified TrxR (DTNB reduction). The data set is classed as biochemical. The note with it: isolated enzyme, 75 min 37 °C preincubation; mean ± SD, three measurements. On the procedure:
The activity of TrxR [40, 54] was determined in a microplate format. Commercially available rat liver TrxR (Sigma Aldrich, St. Louis, MO, USA) was diluted with distilled water to 3.5 Unit/mL. In total, 25 μL aliquots of this solution were mixed with 25 μL of a potassium phosphate buffer, pH 7.0, with or without tested compounds. Fifty µL of 0.5% v/v dimethyl formamide in buffer was served as a blank. […] For this purpose, 25 µL of the highest test concentration of each compound and 25 µL of phosphate buffer (no enzyme) were mixed. Samples were incubated with moderate shaking for 75 min at 37 °C in a 96-well plate. To each well, 225 μL of the reaction mixture (500 μL of potassium phosphate buffer, pH 7.0, 80 μL of 100 mM ethylenediaminetetraacetic acid (EDTA), 20 μL of 0.2% bovine serum albumin, 100 μL of 20 mM NADPH (nicotinamide adenine dinucleotide phosphate), and 300 μL of water) was added; the reaction was initiated by the addition of 25 μL of 20 mM DTNB (5,5′-dithiobis(2-nitrobenzoic acid)) solution in ethanol. The formation of 5-TNB was monitored at 405 nm 10 times at 35 s intervals by a VICTOR X4 Plate Reader (Perkin Elmer). […] IC50 values were calculated as the concentration of the compound that decreased the enzymatic activity of the control (no compound) by 50%. Values are mean ± SD of the three independent measurements.

For data set [3], the system named is HCT116 cells. As to the kind of experiment: Annexin V/7-AAD flow cytometry (Muse Annexin V & Dead Cell Kit). The data set is classed as cell-based. Conditions: HCT116, 24 h; for Annexin V-positive cells: 2xIC50 (50 µM of 16, 20 µM of 20); for early apoptosis (Annexin V/7-AAD) / late apoptosis (Annexin V/7-AAD) / live cells (Annexin V/7-AAD) / necrosis (Annexin V/7-AAD): 2xIC50, one representative experiment. On the procedure: Mechanisms of cell death, that is, Annexin V/7-AAD reactivity and caspase 3/7 activation, were determined for 16 and 20 in HCT116 cells using the Muse® Annexin V & Dead Cell Kit (Luminex corp., Austin, TX, USA) and flow cytometry. Cells were incubated with 16, 20, or cisplatin (reference drug) for 24 h at concentrations corresponding to 2xIC50 values (obtained in MTT assays; Table 4). The percentages of Annexin V-positive cells in response to 16 and 20 were higher than cisplatin (Figure 8). Complex 20 with the C12 linker induced Annexin V positivity slightly more efficiently than 16 with the C3 linker (27.4 ± 2.1% vs. 19.7 ± 0.6%).
The antiproliferative activity was studied by MTT assays as published previously. For flow cytometry studies, cells were plated into 6-well plates (Eppendorf, Germany; 4 × 10^5 cells in 2 mL of DMEM) and incubated for 24 h. Solutions of complexes in DMSO were prepared immediately prior to the day of the experiments. Cells were treated with either 20 µM of cisplatin, 50 µM of 16, or 20 µM of 20. Concentrations corresponded to two-fold IC50 values based on MTT assays. Cells were incubated for 24 h, pooled, washed with cold PBS, and resuspended in DMEM. Aliquots of cells were processed as recommended in the Muse Annexin V&Dead Cell Kit or Muse Caspase-3/7 Kit (Luminex). Measurements were carried out on a Muse Cell Analyser, Luminex corp., TX, USA.
(A flow cytometer gives signals particle by particle.)

Like-named read-outs stand apart in the source and are kept apart here.

On to “Na[trans-Ru(DMSO)(C30H37Cl2N5O)Cl4] [Compound 20]”, for which, in data set [1], the mechanism of inhibition result is “non-competitive” and the Ki was 15.3 µM. Moreover, the IC50 in data set [1] (DTNB 0.06 mM) is 17 µM. Besides, the IC50 in data set [1] (DTNB 0.1 mM) came out at 15 µM. The IC50 in data set [1] (DTNB 2.5 mM) came to 15 µM. The same substance registered an IC50 in data set [2] of 8.5 ± 0.3 µM. Moreover, in data set [3], the “Annexin V-positive cells” value is recorded as 27.4 ± 2.1%, the “early apoptosis (Annexin V/7-AAD)” value was 5%, the “late apoptosis (Annexin V/7-AAD)” value amounted to 26% and the “live cells (Annexin V/7-AAD)” value is 69%. Further, the “necrosis (Annexin V/7-AAD)” value in data set [3] is reported as 0%.

As for “Na[trans-Ru(DMSO)(C21H19Cl2N5O)Cl4] [Compound 16]”, in data set [1], the mechanism of inhibition entry was “non-competitive” and the Ki is 30.7 µM. In data set [1] (DTNB 0.06 mM), the IC50 turned out to be 24 µM. For the same substance, the IC50 in data set [1] (DTNB 0.1 mM) turned out to be 33 µM. In addition, the IC50 in data set [1] (DTNB 2.5 mM) was found to be 33 µM. This substance displayed an IC50 in data set [2] of 20.4 ± 0.1 µM. In data set [3], the “Annexin V-positive cells” value turned out to be 19.7 ± 0.6%, the “early apoptosis (Annexin V/7-AAD)” value was 3%, the “late apoptosis (Annexin V/7-AAD)” value is 20% and the “live cells (Annexin V/7-AAD)” value is recorded as 78%. Besides, in data set [3], the “necrosis (Annexin V/7-AAD)” value is 0%.

The term Ki denotes a measure of affinity in units of concentration, obtained from inhibition or displacement. What is called IC50 is the midpoint of a concentration-inhibition curve.
